Assay results as given in publication PMC12856912, “Structure-Guided Semisynthesis of Blasticidin S–Amicetin Chimeras as Selective Ribosome Inhibitors” (Journal of the American Chemical Society, 2026).
Like-named read-outs stand apart in the source and are kept apart here.

What was measured:
[1] = system: MRSA NRS384 (USA300); test: Multi-step resistance selection (serial passage); format: cell-based, Staphylococcus aureus; settings: 15 days of serial passaging; resistance = 4-fold shift in MIC
Procedure: (§1) culture serv ed as an untreated control. The cultures were aerobically maintai ned at 37°C in shaking incubator. At specifi c sampling times, aliquots were collected, resuspended in phosphate-buffered saline (PBS) and distributed to three replicates on tryptic soy agar (TSA). After a 24-hour incubation period at 37°C, the number of colony- forming units (CFUs) was evaluated.
(§2) F i g u re S 1. Time kill results against MRSA USA 300 at 5X and 10X MIC. Compound P3 ( 38) is shown as red squares, compound P5( 40) is shown as green tri angles. Vancomycin (inverted purple triangle) is used as a b act ericidal control and linezolid (orange diamond) as a bacteriostatic control with DMSO (blue circles ) as a neg ative control.
Multi-step resistance selection
To assess the ability of M R S A NRS384 (USA300) to develop resistance to P -NM and P-AM, a multi- step serial passage experiment was used, as described previously.4-6 MRSA strain was serially passaged with sub inhibitory concentrations of compounds and control drugs (Rifampicin and linezolid) in 1 5passages over a period of two weeks. Resistance was defined as a 4 -fold shift […]
F i g u re S 2.Multi -step resistance selection for blastimidine P3 ( 38) and blastimidine P5 (40) , rifampicin, and linezolid evaluated against methicillin -resistant S. aureus (MRSA) NRS384 (USA300) for 15days. […]

[2] = system: MRSA USA-300; format: cell-based, Staphylococcus aureus; settings: for log reduction in time-kill assay: after 24 h
Procedure: MRSA USA-300 was grown overnight in cation- adjusted Muell er-Hinton broth (CAMHB), then subcultured into fresh CAMHB and incubated aerobi cally at 37°C until reaching the logarithmic phase, corresponding to an optical density (OD₆₀₀) of 0.2. The bacterial cultures were further diluted to adjust to a final concentration of 5 × 10⁵ CFU/mL in CAMHB. P3, P5, vancomycin and linezolid, were added at concentrations of 5× and 10× MIC. A DMSO-treated […]
as §1
as §2, with “control. […]” for “control.”

SMILES	resistance development on serial passaging [1]	bacteriostatic or bactericidal effect in time-kill assay ([2]; 5× MIC and 10× MIC)	log reduction in time-kill assay ([2]; 5× MIC) [log]	log reduction in time-kill assay ([2]; 10× MIC) [log]	clearance in time-kill assay ([2]; 5× MIC and 10× MIC, within 24 h)
CNc1ccc(C(=O)Nc2ccn([C@H]3C=C[C@H](NC(=O)C[C@@H](N)CCN(C)C(=N)N)[C@@H](C(=O)NCCc4ccccc4)O3)c(=O)n2)cc1 [Blastimidine P3]	did not produce a resistant phenotype	bacteriostatic activity	2.5	2.7	–
CN(CC[C@H](N)CC(=O)N[C@H]1C=C[C@H](n2ccc(NC(=O)c3ccc(NC(=O)[C@@](C)(N)CO)cc3)nc2=O)O[C@@H]1C(=O)NCCc1ccccc1)C(=N)N [Blastimidine P5]	did not produce a resistant phenotype	bactericidal activity	–	–	complete clearance
